Patent US6432972B1, “Treating allergic and inflammatory conditions” (Schering Corporation, priority 2000, dated 2002)

Experiments:
[1] = stability of free base versus acid addition salt; assay type: physicochemical
Source text: Such pharmaceutical compositions may be formulated by combining desloratadine or an equivalent amount of a pharmaceutically acceptable salt thereof with a suitable, inert, pharmaceutically acceptable carrier or diluent that may be either solid or liquid. Desloratadine may be converted into the pharmaceutically acceptable acid addition salts by admixing it with an equivalent amount of a pharmaceutically acceptable acid. Typically suitable pharmaceutically acceptable acids include the mineral acids, e.g., HNO3, H2SO4, H3PO4, HCl, HBr, organic acids, including, but not limited to, acetic, trifluoroacetic, propionic, lactic, maleic, succinic, tartaric, glucuronic and citric acids as well as alkyl or arylsulfonic acids, such as p-toluenesulfonic acid, 2-naphthalenesulfonic acid, or methanesulfonic acid. The preferred pharmaceutically acceptable salts are trifluoroacetate, tosylate, mesylate, and chloride.

[2] = test system: seasonal allergic rhinitis patients; assay: double-blinded, randomized clinical trials in seasonal allergic rhinitis patients; assay type: in vivo, human
Experimental: Efficacy endpoints in all the studies were Total Symptom Score, Total Nasal Symptom Score, Total Non-nasal Symptom Score, and Health Quality of Life (HQOL) analysis in efficacy trials. […] An important efficacy endpoint analyzed in the desloratadine studies is the AM NOW total symptom score. This parameter measures the total symptom relief by the patient after 24 hours before taking the next day dose.

patients with SAR = assay: pooled randomized, parallel-group, double-blind, placebo-controlled studies; nasal congestion/stuffiness severity score in patients with SAR; assay type: in vivo, human; details: for nasal congestion/stuffiness, 14-day average change in symptom severity score from baseline: baseline score 2.4
Experimental: The severity (0=none, 1=mild, 2=moderate, 3=severe) of congestion/stuffiness was assessed by patients for the study duration. The 14-day average change in symptom severity score from baseline was assessed. The mean symptom severity score for nasal congestion/stuffiness was 2.4 in each treatment group at baseline, indicating patients had moderate-to-severe nasal congestion before receiving treatment.

Clc1ccc2c(c1)CCc1cccnc1C2=C1CCNCC1 [Desloratadine]
stability, free base compared with acid addition salt [1]: more stable as the free base than as an acid addition salt | total symptom scores (sum of individual scores for rhinorrhea, sneezing, congestion/stuffiness, nasal itching, itchy/burning eyes, tearing, ocular redness, itchy ears/palate) ([2]; 5 mg once daily, adult and adolescent seasonal allergic rhinitis patients): significantly reduced | AM NOW total symptom score (symptom relief after 24 hours, before next day dose) ([2]; 5 mg to 20 mg dosage range, p<0.05): Statistically significant (p<0.05) reductions were maintained for the full 24 hour dosing interval | reducing nasal symptoms vs placebo ([2]; 5 mg, p<0.01 vs placebo): significantly (p<0.01) more effective than placebo | nasal congestion/stuffiness, 14-day average change in symptom severity score from baseline (patients with SAR; 5 mg PO once a day for 14 days, P=0.02 vs placebo): significantly decreased | total symptom severity (patients with SAR; 5 mg or 7.5 mg PO once a day for 14 days, vs placebo): significantly decreased | nasal congestion/stuffiness, 14-day average change in symptom severity score from baseline (patients with SAR; 7.5 mg PO once a day for 14 days, P=0.01 vs placebo): significantly decreased
